The text below walks through data of ChEMBL document CHEMBL2074303, “Transport of the glutathione conjugate of ethacrynic acid by the human multidrug resistance protein MRP” (FEBS Lett, 1996).

Data set [1] concerns the target Multidrug resistance-associated protein 1 (MRP1) (Homo sapiens, UniProt P33527). The experiment in a line: TP_TRANSPORTER: inhibition of DNP-SG uptake (DNP-SG: 10 uM, 4-Glutathionyl cyclophosphamide: 1000uM) in membrane vesicles from S1(MRP) cells. The conditions noted are these: probe DNP-SG, read-out: Activity. It is filed as functional, cell membranes, Membrane vesicle. More on the design: scale not given: the % may be the effect or the level left.

In data set [2] the target is Multidrug resistance-associated protein 1 (Homo sapiens, UniProt P33527). The experiment in a line: TP_TRANSPORTER: inhibition of DNP-SG uptake (DNP-SG: 10 uM, Glutathione S-conjugate of ethacrynic acid: 10uM) in membrane vesicles from S1(MRP) cells. It is filed as functional, cell membranes, Membrane vesicle. Further details: scale not given: the % may be the effect or the level left.
Multidrug resistance-associated protein 1, sequence (P33527 whole entry): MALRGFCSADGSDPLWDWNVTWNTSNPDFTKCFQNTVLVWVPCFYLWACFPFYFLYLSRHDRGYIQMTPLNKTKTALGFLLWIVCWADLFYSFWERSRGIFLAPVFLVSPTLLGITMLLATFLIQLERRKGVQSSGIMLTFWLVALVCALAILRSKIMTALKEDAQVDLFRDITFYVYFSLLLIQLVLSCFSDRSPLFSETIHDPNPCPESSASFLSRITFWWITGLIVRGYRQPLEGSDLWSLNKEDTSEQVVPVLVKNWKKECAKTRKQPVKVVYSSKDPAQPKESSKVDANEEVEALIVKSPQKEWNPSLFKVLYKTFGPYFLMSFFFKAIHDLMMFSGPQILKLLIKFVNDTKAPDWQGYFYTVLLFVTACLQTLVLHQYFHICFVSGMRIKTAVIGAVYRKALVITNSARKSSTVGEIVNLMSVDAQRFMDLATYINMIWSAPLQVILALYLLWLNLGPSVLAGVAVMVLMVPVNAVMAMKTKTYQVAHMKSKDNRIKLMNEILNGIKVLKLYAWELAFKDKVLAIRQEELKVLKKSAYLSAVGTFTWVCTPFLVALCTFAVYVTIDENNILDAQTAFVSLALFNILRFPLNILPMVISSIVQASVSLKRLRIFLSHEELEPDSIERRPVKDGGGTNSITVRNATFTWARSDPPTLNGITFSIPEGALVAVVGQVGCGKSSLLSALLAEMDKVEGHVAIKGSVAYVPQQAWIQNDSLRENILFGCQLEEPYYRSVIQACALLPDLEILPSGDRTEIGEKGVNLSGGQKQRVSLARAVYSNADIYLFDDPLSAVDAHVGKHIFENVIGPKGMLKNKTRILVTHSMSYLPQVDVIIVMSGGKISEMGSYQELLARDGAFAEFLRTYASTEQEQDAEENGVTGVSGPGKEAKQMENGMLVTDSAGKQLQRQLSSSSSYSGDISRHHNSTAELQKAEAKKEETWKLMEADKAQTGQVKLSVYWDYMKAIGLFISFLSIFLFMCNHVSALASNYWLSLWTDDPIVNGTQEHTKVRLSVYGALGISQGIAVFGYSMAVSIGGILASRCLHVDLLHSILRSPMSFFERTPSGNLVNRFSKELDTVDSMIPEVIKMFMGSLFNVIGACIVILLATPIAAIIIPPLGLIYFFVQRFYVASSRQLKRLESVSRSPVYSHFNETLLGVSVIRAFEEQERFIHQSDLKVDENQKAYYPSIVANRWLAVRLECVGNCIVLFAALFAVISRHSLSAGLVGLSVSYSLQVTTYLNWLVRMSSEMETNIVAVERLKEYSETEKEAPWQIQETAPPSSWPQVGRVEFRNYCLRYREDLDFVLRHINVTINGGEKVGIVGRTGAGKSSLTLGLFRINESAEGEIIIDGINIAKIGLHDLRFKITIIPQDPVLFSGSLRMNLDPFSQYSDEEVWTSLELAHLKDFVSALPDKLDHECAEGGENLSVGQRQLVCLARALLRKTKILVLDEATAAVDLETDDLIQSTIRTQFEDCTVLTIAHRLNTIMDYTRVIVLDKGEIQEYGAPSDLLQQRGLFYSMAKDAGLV

Multidrug resistance-associated protein 1 (MRP1), sequence (P33527 whole entry): as above

As to `NC(CCC(=O)NC(CSC1CCOP(=O)(N(CCCl)CCCl)N1)C(=O)NCC(=O)O)C(=O)O` (configuration not stated), the activity at 1000 µM in data set [1] worked out at 44%.
With `CCC(CSC[C@@H](NC(=O)CC[C@H](N)C(=O)O)C(=O)NCC(=O)O)C(=O)c1ccc(OCC(=O)O)c(Cl)c1Cl` (some centres not stated), in data set [2], the Activity was determined as 4%.
